Experimental data reported in patent US20230331803A1, “CO-AGONISTS OF THE GLP-1 AND AMYLIN RECEPTORS” (priority 2020, published 2023).
Read-outs that look alike come from different tables or passages of the source. Starred links: 1 amine or outer side, 2 acyl side, 3 side chain; linkers in the order of their positions; H or OH if unused. Non-standard residues stand in square brackets, D forms with d. Groups on a side chain read outwards from the residue. *: point of attachment. Decanoyl(10-(4-HOOC-PhO)) = O=C(O)c1ccc(OCCCCCCCCCC(=O)*)cc1; C20 diacid = O=C(O)CCCCCCCCCCCCCCCCCCC(=O)*; C16 diacid = O=C(O)CCCCCCCCCCCCCCC(=O)*; γGlu = O=C(O)[C@H](CCC(=O)[*:2])N[*:1]; Trx = NC[C@H]1CC[C@H](C(=O)O)CC1; AEEA = NCCOCCOCC(=O)O; Aib = CC(C)(N)C(=O)O; Ahx = NCCCCCC(=O)O

Columns and labels:
[1] = Pharmacokinetic studies in Beagle dogs after oral administration of SNAC-based tablets; assay type: in vivo; details: for Tmax / half-life: male, Beagle
Experimental: To be able to evaluate oral exposure following tablet dosing, tablet compositions comprising the test substance and SNAC (sodium N-(8-(2-hydroxybenzoyl)amino)caprylate) were prepared by mixing test substance with roller compacted SNAC and magnesium stearate as, e.g., described in WO 2019/149880. The amount of SNAC in the tablet composition was 100-300 mg, the amount of magnesium stearate in the tablet composition was 7.7 mg, and the target amount of each test substance in the tablet composition was 3-4 mg.
Pharmacokinetic (PK) studies in Beagle dogs were conducted to determine the exposure of the GLP-1 receptor-amylin receptor co-agonist after peroral administration.
For the pharmacokinetic studies male Beagle dogs were used, 2-7, or 1 to 5, years of age and weighing approximately 10-15, such as 10-12, kg at the start of the studies. The dogs were group housed in pens (12 hours light: 12 hours dark),and fed individually and restrictedly once daily with Royal Canin Medium Adult dog (Royal Canin Products, China Branch, or Brogaarden A/S, Denmark). Exercise and group social were permitted daily, whenever possible. The dogs were used for repeated pharmacokinetic studies with a suitable wash-out period between successive dosing. An appropriate acclimatisation period was given prior to initiation of the first pharmacokinetic study. All handling, dosing and blood sampling of the animals were performed by trained and skilled staff. Before the studies the dogs were fasted overnight and from 0 to 4 h after dosing. Besides, the dogs were restricted to water 1 hour before dosing until 4 hours after dosing, but otherwise have ad libitum access to water during the whole period.
The tablets used for the p.o. studies described herein were immediate release SNAC-based tablets dosed orally.
The tablets were administered in the following manner: 10 min prior to tablet administration the dogs may be dosed subcutaneously with approximately 3 nmol/kg of SEQ ID NO: 237, tablets were placed in the back of the mouth of the dog to prevent chewing. The mouth was then closed, and 10 mL of tap water was given by a syringe or gavage to facilitate swallowing of the tablet.
Blood was sampled at predefined time points for up till 240 hours, such as up till 10 hr, post dosing to adequately cover the full plasma concentration-time absorption profile of the GLP-1 agonist.
For each blood sampling time point approximately 0.8 mL of whole blood was collected in a 1.5 mL EDTA coated tube, and the tube was gently turned to allowing mixing of the sample with the EDTA. Blood samples (for example 0.8 mL) were collected in EDTA buffer (8 mM) and then centrifuged at 4° C. and 2000 G for 10 minutes. Plasma was pipetted into Micronic tubes on dry ice, and kept at -20° C. until analysis.
Blood samples were taken as appropriate, for example from a venflon in the cephalic vein in the front leg for the first 2 hours and then with syringe from the jugular vein for the rest of the time points (the first few drops were allowed to drain from the venflon to avoid heparin saline from the venflon in the sample).
Plasma concentration of the GLP-1 receptor-amylin receptor co-agonists were determined using LCMS. Individual plasma concentration-time profiles were analysed by a non-compartmental model in WinNonlin v. 5.0 or Phoenix v. 6.2 or 6.3 (Pharsight Inc., Mountain View, CA, USA), or other relevant software for PK analysis.
The individual plasma concentration-time profiles were analysed by non-compartmental analysis (NCA).

human GLP-1 receptor = molecular target: T1, human GLP-1 receptor (Homo sapiens, UniProt P43220); assay: Human GLP-1 receptor in vitro potency assay (CRE-luciferase reporter, BHK cells); assay type: cell-based
T1 construct: expressed in transfected cells; host or cells: BHK (Baby Hamster Kidney) cells, clone BHK 467-12A KZ-10, stably transfected, with CRE-luciferase reporter
Experimental: It is thus possible to measure GLP-1 receptor activity using a CRE-luciferase reporter gene introduced into Baby Hamster Kidney (BHK) cells co-expressing the GLP-1 receptor.
(§1) Cells were aliquoted and stored at -180° C. until use.
Plates were sealed and incubated at room temperature with gentle shaking for 30 minutes while protected from light. Luminescence was detected on a luminescence plate reader e.g. a Synergy 2 (BioTek).

[2] = molecular target: T2, human amylin receptor (hAmyR3) (Homo sapiens, UniProt O60896+P30988); assay: Human amylin receptor in vitro potency assay (CRE-luciferase reporter, BHK cells); assay type: cell-based;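 note: BHK cells expressing human calcitonin receptor plus RAMP3 (amylin-3 receptor) with a CRE-luciferase reporter, agonist activity read as luminescence from cAMP-driven transcription, 7-point serial dilutions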
T2 construct: host or cells: BHK cells (Hollex-1 line: human calcitonin receptor (a) + CRE-Luc), further transfected with human RAMP3
From the text: Activation of hAmyR3 leads to increased cellular concentrations of cAMP. Consequently, transcription is activated by promotors containing multiple copies of the cAMP response element (CRE). It is thus possible to measure hAmyR3 activity using a CRE-luciferase reporter gene introduced into Baby Hamster Kidney (BHK) cells co-expressing the hAmyR3.
The cell line was further transfected with human receptor modifying protein 3 (RAMP3) using standard methods. This turns the human calcitonin receptor into a human amylin-3(a) receptor.
as §1
The plate was incubated over night at 37° C. in 5% CO2. On the day of the assay, cells were washed three times in assay buffer. Serial dilutions (7-fold dilutions, 7 concentrations pr. compound and one well containing only assay buffer) of comparator compounds and GLP-1 receptor-amylin receptor co-agonists were performed in assay buffer often starting from approximately 10-100 nM in 96-well plates and 30 µL of each concentration added to the 384-well assay plate with cells. […] The assay plate was sealed, incubated at room temperature with gentle shaking for 5 minutes followed by 30 minutes incubation without shaking while protected from light. Luminescence was detected on a luminescence plate reader e.g. a Synergy 2 (BioTek).

[3] = Table 4a, BHK cells expressing human GLP-1R, CRE-Luc, 3 hours, read-out: Human GLP-1R potency [EC50 (pM)]
[4] = Table 4a, BHK hAmyR3/CRE-Luc cells, 3 hours, read-out: Human AmyR3 potency [EC50 (pM)]
[5] = dogs, oral administration (tablet)
[6] = dog, in vivo, dogs, oral administration (tablet), read-out: Tmax
[7] = dog, in vivo, dogs, oral administration (tablet), read-out: T½ (converted)

T1 sequence (P43220 24-463): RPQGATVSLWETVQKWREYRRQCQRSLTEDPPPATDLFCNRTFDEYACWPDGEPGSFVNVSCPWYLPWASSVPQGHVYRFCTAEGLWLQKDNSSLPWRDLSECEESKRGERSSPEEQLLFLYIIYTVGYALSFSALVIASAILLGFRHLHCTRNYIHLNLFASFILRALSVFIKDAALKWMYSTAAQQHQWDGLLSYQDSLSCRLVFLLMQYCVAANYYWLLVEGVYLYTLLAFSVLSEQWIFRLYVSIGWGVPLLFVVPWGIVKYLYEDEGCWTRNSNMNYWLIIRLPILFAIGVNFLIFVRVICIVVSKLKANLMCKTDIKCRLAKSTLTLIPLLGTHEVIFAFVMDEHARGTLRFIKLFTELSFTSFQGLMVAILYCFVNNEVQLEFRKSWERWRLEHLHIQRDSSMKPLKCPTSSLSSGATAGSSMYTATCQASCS
T2 sequence (P30988 25-474): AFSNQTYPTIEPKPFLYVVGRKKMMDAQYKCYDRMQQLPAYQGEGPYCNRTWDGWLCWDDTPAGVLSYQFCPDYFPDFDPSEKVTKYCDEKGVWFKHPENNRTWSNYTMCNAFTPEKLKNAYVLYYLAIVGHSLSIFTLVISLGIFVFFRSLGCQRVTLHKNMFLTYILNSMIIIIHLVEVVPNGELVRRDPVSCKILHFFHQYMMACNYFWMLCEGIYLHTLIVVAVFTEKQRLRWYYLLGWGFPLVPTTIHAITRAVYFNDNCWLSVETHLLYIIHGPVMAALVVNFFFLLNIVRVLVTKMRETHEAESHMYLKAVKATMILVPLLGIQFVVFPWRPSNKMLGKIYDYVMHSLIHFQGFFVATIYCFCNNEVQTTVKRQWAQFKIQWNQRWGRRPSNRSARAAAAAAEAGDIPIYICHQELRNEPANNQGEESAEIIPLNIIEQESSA
T2 sequence (O60896 24-148): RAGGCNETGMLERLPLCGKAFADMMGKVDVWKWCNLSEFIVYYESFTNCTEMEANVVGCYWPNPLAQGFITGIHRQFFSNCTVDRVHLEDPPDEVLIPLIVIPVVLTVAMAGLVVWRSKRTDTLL

| Compound | AUC/D ([1]; dog, in vivo, po) [kg·h/L] | Cmax/D ([1]; dog, in vivo, po) [kg/L] | Tmax ([1]; dog, in vivo, po, Tmax (hr)) [h] | half-life ([1]; dog, in vivo, po, T½ (hr)) [h] | EC50 (human GLP-1 receptor; [3]) [pM] | EC50 [2, 4] [pM] | AUC/D [1, 5] [kg·h/L] | Cmax/D [1, 5] [kg/L] | Tmax [1, 6] [h] | half-life [1, 7] [h] | EC50 (human GLP-1 receptor) [pM] | EC50 [2] [pM] |
| --- | --- | --- | --- | --- | --- | --- | --- | --- | --- | --- | --- | --- |
| H-H[Aib]EGTFTSDVSK([AEEA-AEEA-γGlu-C16 diacid])YLEEQAARK([AEEA-AEEA-γGlu-C16 diacid])FIAWLVRGRQEGGGGGASELSTAALGRLSAELHELATLPRTETGSGSP-NH2 [Compound 0575] | 27.60 | 0.34 | 1.5 | 91 | 5.6 | 8.3 |  |  |  |  |  |  |
| H-H[Aib]EGTFTSDVSSYLEEK([AEEA-AEEA-γGlu-Trx-C20 diacid])AAREFIAWLVRGRGGGGEASELSTAALGRLSAELHELATLPRTETGSGSP-NH2 [Compound 0265] | 5.68 | 0.16 | 2 | 16 | 6 | 8.1 |  |  |  |  |  |  |
| H-H[Aib]EGTFTSDVSK([AEEA-AEEA-γGlu-C16 diacid])YLEEQAAREFIAWLVRGRK([AEEA-AEEA-γGlu-C16 diacid])GGGGEASELSTAALGRLSAELHELATLPRTETGSGSP-NH2 [Compound 0528] | 37.01 | 0.5 | 1.5 | 107 | 3.8 | 22 |  |  |  |  |  |  |
| H-H[Aib]EGTFTSDVSSYLEGQAAREFIAWLVRGRGQEPK([AEEA-AEEA-γGlu-Trx-C20 diacid])GQAPEASELSTAALGRLSAELHELATLPRTETGSGSP-NH2 [Compound 0539] | 8.71 | 0.22 | 3 | 30 | 5 | 12.1 |  |  |  |  |  |  |
| H-H[Aib]EGTFTSDVSK([AEEA-AEEA-γGlu-C16 diacid])YLEEQAARK([AEEA-AEEA-γGlu-C16 diacid])FIEWLVRGRGEASELSTAALGRLSAELHELATLPRTETGSGSP-NH2 [Compound 0577] | 37.60 | 0.45 | 1.3 | 93 | 5.6 | 19.1 |  |  |  |  |  |  |
| H-H[Aib]EGTFTSDVSSYLEGQAAREFIAWLVRGRGQEPK([AEEA-AEEA-γGlu-C20 diacid])GQAPEASELSTAALGRLSAELHELATLPRTETGSGSP-NH2 [Compound 0529] | 19.71 | 0.3 | 4 | 68 | 6.4 | 14.1 |  |  |  |  |  |  |
| H-HWEGTFTSDVSSYLEEQAAREFIEWLVRGK([AEEA-AEEA-γGlu-Decanoyl(10-(4-HOOC-PhO))])GEGGGGGASELSTAALGRLSAELHELK([AEEA-AEEA-γGlu-Decanoyl(10-(4-HOOC-PhO))])TLPRTETGSGSP-NH2 [Compound 0234] |  |  |  |  |  |  | 8.00 | 0.35 | 1 | 31 | 38.9 | 38.4 |
| H-H[Aib]EGTFTSDVSK([Ahx-γGlu-γGlu-C16 diacid])YLEEQAARK([Ahx-γGlu-γGlu-C16 diacid])FIEWLVRGAAEASELSTAALGRLSAELHELATLPRTETGSGSP-NH2 [Compound 0630] | 33.33 | 0.53 | 1.5 | 73 | 7.1 | 110 |  |  |  |  |  |  |
| H-H[Aib]EGTFTSDVSSYLEEQAAREFIEWLVRGRK([AEEA-AEEA-γGlu-Trx-C20 diacid])GGGGEASELSTAALGRLSAELHELATLPRTETGSGSP-NH2 [Compound 0503] | 8.72 | 0.14 | 4 | 41 | 6.5 | 7.7 |  |  |  |  |  |  |
| H-H[Aib]EGTFTSDVSSYLEEQAARK([AEEA-AEEA-γGlu-C20 diacid])FIAWLVRGGASELSTAALGRLSAELHELATLPRTETGSGSP-NH2 [Compound 0580] | 12.77 | 0.38 | 2 | 39 | 7.4 | 9.3 |  |  |  |  |  |  |
| H-H[Aib]EGTFTSDVSK([AEEA-AEEA-γGlu-C16 diacid])YLEEQAARK([AEEA-AEEA-γGlu-C16 diacid])FIEWLVRGRGEGGGGGASELSTAALGRLSAELHELATLPRTETGSGSP-NH2 [Compound 0576] | 28.20 | 0.34 | 1.3 | 94 | 2.9 | 10.1 |  |  |  |  |  |  |
| CC[C@H](C)[C@H](NC(=O)[C@H](Cc1ccccc1)NC(=O)[C@H](CCC(=O)O)NC(=O)[C@H](CCCNC(=N)N)NC(=O)[C@H](C)NC(=O)[C@H](C)NC(=O)[C@H](CCC(N)=O)NC(=O)[C@H](CCC(=O)O)NC(=O)[C@H](CCC(=O)O)NC(=O)[C@H](CC(C)C)NC(=O)[C@H](Cc1ccc(O)cc1)NC(=O)[C@H](CO)NC(=O)[C@H](CO)NC(=O)[C@H](CCCCNC(=O)COCCOCCNC(=O)COCCOCCNC(=O)CC[C@H](NC(=O)[C@H]1CC[C@H](CNC(=O)CCCCCCCCCCCCCCCCCCC(=O)O)CC1)C(=O)O)NC(=O)[C@H](CC(=O)O)NC(=O)[C@H](CO)NC(=O)[C@@H](NC(=O)[C@H](Cc1ccccc1)NC(=O)[C@@H](NC(=O)CNC(=O)[C@H](CCC(=O)O)NC(=O)[C@H](C)NC(=O)[C@@H](N)Cc1c[nH]cn1)[C@@H](C)O)[C@@H](C)O)C(=O)N[C@@H](CCC(=O)O)C(=O)N[C@@H](Cc1c[nH]c2ccccc12)C(=O)N[C@@H](CC(C)C)C(=O)N[C@H](C(=O)N[C@@H](CCCNC(=N)N)C(=O)NCC(=O)N[C@@H](CCCNC(=N)N)C(=O)NCC(=O)N[C@@H](CCC(=O)O)C(=O)N[C@@H](C)C(=O)N[C@@H](CO)C(=O)N[C@@H](CCC(=O)O)C(=O)N[C@@H](CC(C)C)C(=O)N[C@@H](CO)C(=O)N[C@H](C(=O)N[C@@H](C)C(=O)N[C@@H](C)C(=O)N[C@@H](CC(C)C)C(=O)NCC(=O)N[C@@H](CCCNC(=N)N)C(=O)N[C@@H](CC(C)C)C(=O)N[C@@H](CO)C(=O)N[C@@H](C)C(=O)N[C@@H](CCC(=O)O)C(=O)N[C@@H](CC(C)C)C(=O)N[C@@H](Cc1c[nH]cn1)C(=O)N[C@@H](CCC(=O)O)C(=O)N[C@@H](CC(C)C)C(=O)N[C@@H](C)C(=O)N[C@H](C(=O)N[C@@H](CC(C)C)C(=O)N1CCC[C@H]1C(=O)N[C@@H](CCCNC(=N)N)C(=O)N[C@H](C(=O)N[C@@H](CCC(=O)O)C(=O)N[C@H](C(=O)NCC(=O)N[C@@H](CO)C(=O)NCC(=O)N[C@@H](CO)C(=O)N1CCC[C@H]1C(N)=O)[C@@H](C)O)[C@@H](C)O)[C@@H](C)O)[C@@H](C)O)C(C)C [Compound 0431] |  |  |  |  |  |  | 9.75 | 0.29 | 1.5 | 34 | 10.9 | 11.9 |
